From publication PMC8781629, “Identification of an Amylomaltase from the Halophilic Archaeon Haloquadratum walsbyi by Functional Metagenomics: Structural and Functional Insights” (Life, 2022)

Target: T1, Hw-A (H. walsbyi amylomaltase) (Haloquadratum walsbyi, UniProt Q18H55)
T1 construct: gene malQ; full length plus 21 vector residues incl; N-terminal His6 tag (p15TV-L), E. coli Origami (DE3), about 67 kDa, tag not reported cut
Assay: starch transglycosylation, decrease of starch-iodine absorbance at […] nm
Assay type: biochemical
Settings: acceptor substrate (best of those tested), 0.05%; donor 0.15% starch; 50 mM sodium phosphate pH 7, 1 M NaCl, 40 °C, 1 h

T1 sequence (Q18H55 entry or part of it): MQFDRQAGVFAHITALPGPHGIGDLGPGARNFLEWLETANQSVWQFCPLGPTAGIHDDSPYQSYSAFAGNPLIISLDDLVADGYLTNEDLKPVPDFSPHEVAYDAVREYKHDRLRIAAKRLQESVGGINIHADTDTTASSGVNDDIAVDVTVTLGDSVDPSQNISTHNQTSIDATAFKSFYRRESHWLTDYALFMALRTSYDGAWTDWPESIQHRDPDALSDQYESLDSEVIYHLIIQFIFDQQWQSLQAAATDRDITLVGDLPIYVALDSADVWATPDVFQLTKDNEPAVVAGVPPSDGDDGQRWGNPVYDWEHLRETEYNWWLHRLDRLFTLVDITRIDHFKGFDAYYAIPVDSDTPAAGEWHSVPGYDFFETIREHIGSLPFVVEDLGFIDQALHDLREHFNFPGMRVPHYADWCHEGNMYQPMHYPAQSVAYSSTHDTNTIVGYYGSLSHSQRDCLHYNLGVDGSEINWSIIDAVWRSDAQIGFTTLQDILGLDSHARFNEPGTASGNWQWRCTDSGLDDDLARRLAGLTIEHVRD

Question: For `OC[C@H]1O[C@H](O[C@H]2[C@H](O)[C@@H](O)[C@@H](O[C@H]3[C@H](O)[C@@H](O)C(O)O[C@@H]3CO)O[C@@H]2CO)[C@H](O)[C@@H](O)[C@@H]1O` (stereo partly shown) [maltotriose], which “starch transglycosylation, decrease of starch-iodine absorbance at 620 nm” value is on record?
Answer: The assays indicated maltotriose as the best acceptor for starch degradation
